From ChEMBL document CHEMBL1649448, “Atorvastatin is a promising partner for antimalarial drugs in treatment of Plasmodium falciparum malaria” (Antimicrob Agents Chemother, 2009)

Columns and labels:
Format in all cases: functional, organism-based
[1] = system: Plasmodium falciparum; assay: Antimalarial activity against Plasmodium falciparum IMT 16332 harboring Ppcrt M74I, N75E, K76T, A220S, Q271E mutant gene, Pmdr1 N86Y mutant gene assessed as incorporation of [3H]hypoxanthine after 48 hrs by scintillation counter
[2] = system: Plasmodium falciparum; assay: Antimalarial activity against Plasmodium falciparum IMT 10336 assessed as incorporation of [3H]hypoxanthine after 48 hrs by scintillation counter
[3] = system: Plasmodium falciparum; assay: Antimalarial activity against Plasmodium falciparum IMT 10500 assessed as incorporation of [3H]hypoxanthine after 48 hrs by scintillation counter
[4] = system: Plasmodium falciparum; assay: Antimalarial activity against Plasmodium falciparum FCM29 assessed as incorporation of [3H]hypoxanthine after 48 hrs by scintillation counter
[5] = system: Plasmodium falciparum; assay: Antimalarial activity against Plasmodium falciparum D6 assessed as incorporation of [3H]hypoxanthine after 48 hrs by scintillation counter
[6] = system: Plasmodium falciparum; assay: Antimalarial activity against Plasmodium falciparum IMT Bres assessed as incorporation of [3H]hypoxanthine after 48 hrs by scintillation counter
[7] = system: Plasmodium falciparum; assay: Antimalarial activity against Plasmodium falciparum IMT A4 assessed as incorporation of [3H]hypoxanthine after 48 hrs by scintillation counter
[8] = system: Plasmodium falciparum; assay: Antimalarial activity against Plasmodium falciparum IMT 9881 harboring Ppcrt I371R mutant gene assessed as incorporation of [3H]hypoxanthine after 48 hrs by scintillation counter
[9] = system: Plasmodium falciparum; assay: Antimalarial activity against Plasmodium falciparum PA harboring Ppcrt M74I, N75E, K76T, A220S, Q271E, N326S and I356T mutant gene, Pmdr1 N86Y mutant gene and Pfmrp H191Y and S437A mutant gene assessed as incorporation of [3H]hypoxanthine after 48 hrs by scintillation counter
[10] = system: Plasmodium falciparum; assay: (§1) Antimalarial activity against Plasmodium falciparum IMT 8425 harboring Ppcrt I371R mutant gene and Pfnhe-1 ms4760 microsatellite mutant assessed as incorporation of [3H]hypoxanthine after 48 hrs by scintillation counter
[11] = system: Plasmodium falciparum; assay: Antimalarial activity against Plasmodium falciparum 3D7 assessed as incorporation of [3H]hypoxanthine after 48 hrs by scintillation counter
[12] = system: Plasmodium falciparum; assay: Antimalarial activity against Plasmodium falciparum IMT 31 harboring Ppcrt I371R mutant gene assessed as incorporation of [3H]hypoxanthine after 48 hrs by scintillation counter
[13] = system: Plasmodium falciparum; assay: Antimalarial activity against Plasmodium falciparum IMT 31 assessed as incorporation of [3H]hypoxanthine after 48 hrs by scintillation counter
[14] = system: Plasmodium falciparum; assay: Antimalarial activity against Plasmodium falciparum IMT K2 harboring Ppcrt M74I, N75E, K76T, A220S, Q271E, N326S mutant gene, Pmdr1 S1034C, N1042D mutant gene and Pfmrp H191Y and S437A mutant gene assessed as incorporation of [3H]hypoxanthine after 48 hrs by scintillation counter
[15] = system: Plasmodium falciparum; assay: Antimalarial activity against Plasmodium falciparum HB3 assessed as incorporation of [3H]hypoxanthine after 48 hrs by scintillation counter
[16] = system: Plasmodium falciparum; assay: as §1, with “Guy” for “8425”, “Ppcrt K76T, A220S, N326D and” for “Ppcrt”, “I371R mutant gene, Pmdr1 T184FN, 1042D and D1246Y, mutant gene and Pfmrp H191Y and S437A” for “I371R”
[17] = system: Plasmodium falciparum; assay: Antimalarial activity against Plasmodium falciparum IMT 10336 harboring Pfcrt Q271E mutant gene and Ppcrt I371R mutant gene assessed as incorporation of [3H]hypoxanthine after 48 hrs by scintillation counter
[18] = system: Plasmodium falciparum; assay: Antimalarial activity against Plasmodium falciparum IMT L1 assessed as incorporation of [3H]hypoxanthine after 48 hrs by scintillation counter
[19] = system: Plasmodium falciparum; assay: Antimalarial activity against Plasmodium falciparum W2 harboring Ppcrt M74I, N75E, K76T, A220S, Q271E, N326S and I356T mutant gene, Pmdr1 N86Y mutant gene and Pfmrp H191Y and S437A mutant gene assessed as incorporation of [[3H]hypoxanthine after 48 hrs by scintillation counter
[20] = system: Plasmodium falciparum; assay: Antimalarial activity against Plasmodium falciparum IMT Vol assessed as incorporation of [3H]hypoxanthine after 48 hrs by scintillation counter
[21] = system: Plasmodium falciparum; assay: Antimalarial activity against Plasmodium falciparum W2 assessed as incorporation of [3H]hypoxanthine after 48 hrs by scintillation counter
[22] = system: Plasmodium falciparum; assay: Antimalarial activity against Plasmodium falciparum IMT K4 assessed as incorporation of [3H]hypoxanthine after 48 hrs by scintillation counter
[23] = system: Plasmodium falciparum; assay: Antimalarial activity against Plasmodium falciparum 106/1 harboring Ppcrt M74I, N75E, K76T, A220S, Q271E, N326S and I356T mutant gene, Pmdr1 N86Y mutant gene and Pfmrp H191Y and S437A mutant gene assessed as incorporation of [3H]hypoxanthine after 48 hrs by scintillation counter
[24] = system: Plasmodium falciparum; assay: Antimalarial activity against Plasmodium falciparum IMT 9881 assessed as incorporation of [3H]hypoxanthine after 48 hrs by scintillation counter
[25] = system: Plasmodium falciparum; assay: Antimalarial activity against Plasmodium falciparum FCR3 assessed as incorporation of [3H]hypoxanthine after 48 hrs by scintillation counter
[26] = system: Plasmodium falciparum; assay: Antimalarial activity against Plasmodium falciparum FCR3 harboring Ppcrt M74I, N75E, K76T, A220S, Q271E, N326S and I356T mutant gene, Pmdr1 N86Y mutant gene and Pfmrp H191Y and S437A mutant gene assessed as incorporation of [3H]hypoxanthine after 48 hrs by scintillation counter
[27] = system: Plasmodium falciparum; assay: Antimalarial activity against Plasmodium falciparum IMT Bres harboring Ppcrt M74I, N75E, K76T, A220S, Q271E, N326S and I356T mutant gene, Pmdr1 N86Y mutant gene and Pfmrp H191Y and S437A mutant gene assessed as incorporation of [3H]hypoxanthine after 48 hrs by scintillation counter
[28] = system: Plasmodium falciparum; assay: Antimalarial activity against Plasmodium falciparum IMT Vol harboring Ppcrt M74I, N75E, K76T, A220S, Q271E, N326S mutant gene, Pmdr1 N86Y mutant gene and Pfmrp H191Y and S437A mutant gene assessed as incorporation of [3H] hypoxanthine after 48 hrs by scintillation counter
[29] = system: Plasmodium falciparum; assay: Antimalarial activity against Plasmodium falciparum IMT K14 assessed as incorporation of [3H]hypoxanthine after 48 hrs by scintillation counter
[30] = system: Plasmodium falciparum; assay: Antimalarial activity against Plasmodium falciparum IMT Guy assessed as incorporation of [3H]hypoxanthine after 48 hrs by scintillation counter
[31] = system: Plasmodium falciparum; assay: Antimalarial activity against Plasmodium falciparum PA assessed as incorporation of [3H]hypoxanthine after 48 hrs by scintillation counter
[32] = system: Plasmodium falciparum; assay: Antimalarial activity against Plasmodium falciparum D6 harboring Ppcrt I371R mutant gene assessed as incorporation of [3H]hypoxanthine after 48 hrs by scintillation counter
[33] = system: Plasmodium falciparum; assay: Antimalarial activity against Plasmodium falciparum 3D7 harboring Ppcrt I371R mutant gene and Pfnhe-1 ms4760 microsatellite mutant assessed as incorporation of [3H]hypoxanthine after 48 hrs by scintillation counter
[34] = system: Plasmodium falciparum; assay: Antimalarial activity against Plasmodium falciparum FCM29 harboring Ppcrt M74I, N75E, K76T, A220S, Q271E, N326S and I356T mutant gene, Pmdr1 N86Y mutant gene and Pfmrp H191Y and S437A mutant gene assessed as incorporation of [3H]hypoxanthine after 48 hrs by scintillation counter
[35] = system: Plasmodium falciparum; assay: Antimalarial activity against Plasmodium falciparum HB3 harboring Ppcrt I371R mutant gene and Pfmdr1 Y184F mutant gene assessed as incorporation of [3H]hypoxanthine after 48 hrs by scintillation counter
[36] = system: Plasmodium falciparum; assay: Antimalarial activity against Plasmodium falciparum IMT K2 assessed as incorporation of [3H]hypoxanthine after 48 hrs by scintillation counter
[37] = system: Plasmodium falciparum; assay: Antimalarial activity against Plasmodium falciparum IMT 8425 assessed as incorporation of [3H]hypoxanthine after 48 hrs by scintillation counter
[38] = system: Plasmodium falciparum; assay: Antimalarial activity against Plasmodium falciparum IMT K4 harboring Ppcrt M74I, N75E, K76T, A220S, Q271E, N326S mutant gene, Pmdr1 S1034C, N1042D mutant gene and Pfmrp H191Y and S437A mutant gene assessed as incorporation of [3H]hypoxanthine after 48 hrs by scintillation counter
[39] = system: Plasmodium falciparum; assay: Antimalarial activity against Plasmodium falciparum 106/1 assessed as incorporation of [3H]hypoxanthine after 48 hrs by scintillation counter
[40] = system: Plasmodium falciparum; assay: Antimalarial activity against Plasmodium falciparum IMT K14 harboring Ppcrt M74I, N75E, K76T, A220S, Q271E, N326S mutant gene, Pmdr1 Y184F, S1034C, N1042D, D1246Y mutant gene and Pfmrp H191Y and S437A mutant gene assessed as incorporation of [3H]hypoxanthine after 48 hrs by scintillation counter
[41] = system: Plasmodium falciparum; assay: Antimalarial activity against Plasmodium falciparum IMT 10500 harboring Pfcrt Q271E mutant gene and Ppcrt I371R mutant gene and Pfnhe-1 ms4760 microsatellite mutant assessed as incorporation of [3H]hypoxanthine after 48 hrs by scintillation counter
[42] = system: Plasmodium falciparum; assay: Antimalarial activity against Plasmodium falciparum IMT 16332 assessed as incorporation of [3H]hypoxanthine after 48 hrs by scintillation counter
[43] = system: Plasmodium falciparum; assay: Antimalarial activity against Plasmodium falciparum IMT L1 harboring Ppcrt M74I, N75E, K76T, A220S, Q271E mutant gene, Pmdr1 N86Y mutant gene and Pfmrp H191Y and S437A mutant gene assessed as incorporation of [3H]hypoxanthine after 48 hrs by scintillation counter

Measured: IC50

CC(C)c1c(C(=O)Nc2ccccc2)c(-c2ccccc2)c(-c2ccc(F)cc2)n1CC[C@@H](O)C[C@@H](O)CC(=O)O [ATORVASTATIN]
6700 nM: [41]
8600 nM: [14]
9000 nM: [33]
5800 nM: [27]
10800 nM: [35]
8200 nM: [9] | [43]
7600 nM: [28]
9700 nM: [10]
8700 nM: [26]
6000 nM: [1]
7300 nM: [8]
6900 nM: [17] | [38] | [40]
8000 nM: [23]
7100 nM: [16]
5900 nM: [12] | [19] | [32] | [34]
2500 nM: all other assays above

O=C1C(O)=C([C@H]2CC[C@H](c3ccc(Cl)cc3)CC2)C(=O)c2ccccc21 [ATOVAQUONE]
2.4 nM: [2] | [3] | [4] | [5] | [6] | [7] | [11] | [13] | [15] | [18] | [20] | [21] | [22] | [24] | [25] | [29] | [30] | [31] | [36] | [37] | [39] | [42]

C[C@H]1[C@@H](O)O[C@@H]2O[C@@]3(C)CC[C@H]4[C@H](C)CC[C@@H]1[C@@]24OO3 [ARTENIMOL]
0.9 nM: [2] | [3] | [4] | [5] | [6] | [7] | [13] | [15] | [18] | [20] | [21] | [22] | [24] | [25] | [29] | [30] | [31] | [36] | [37] | [39] | [42]

C=C[C@H]1CN2CC[C@H]1C[C@H]2[C@H](O)c1ccnc2ccc(OC)cc12 [QUININE]
48 nM: [36]

CCNCc1cc(Nc2ccnc3cc(Cl)ccc23)ccc1O [DESETHYL AMODIAQUINE]
23 nM: [2] | [3] | [4] | [5] | [6] | [7] | [13] | [15] | [18] | [20] | [21] | [22] | [24] | [25] | [29] | [30] | [31] | [36] | [37] | [39] | [42]

CCCCN(CCCC)CC(O)c1cc(Cl)cc2c1-c1ccc(Cl)cc1/C2=C/c1ccc(Cl)cc1 (configuration not stated) [LUMEFANTRINE]
8 nM: [2] | [3] | [4] | [5] | [6] | [7] | [11] | [13] | [15] | [18] | [20] | [21] | [22] | [24] | [25] | [29] | [30] | [31] | [36] | [37] | [39] | [42]

OC(c1cc(C(F)(F)F)nc2c(C(F)(F)F)cccc12)C1CCCCN1 (configuration not stated) [MEFLOQUINE]
14 nM: [2] | [3] | [4] | [5] | [6] | [7] | [11] | [13] | [15] | [18] | [20] | [21] | [22] | [24] | [25] | [29] | [30] | [31] | [36] | [37] | [39] | [42]
